# Measurements published in PubChem BioAssay (NCI).
#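 Protocol summary: plate cells (96-well), add compound at 5 concentrations, incubate 48 h, interpolate endpoints linearly. At the TGI there is no net growth.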
# What was measured:
# Experiment in all cases: NCI tumour cell line growth inhibition, 48 h
# HCC-2998 colon = test system: HCC-2998 colon
# CAKI-1 renal = test system: CAKI-1 renal
# K-562 leukemia = test system: K-562 leukemia
# HCT-15 colon = test system: HCT-15 colon
# A498 renal = test system: A498 renal
# SF-268 CNS = test system: SF-268 CNS
# MOLT-4 leukemia = test system: MOLT-4 leukemia
# MCF7 breast = test system: MCF7 breast
# MDA-MB-435 = test system: MDA-MB-435
# SK-MEL-2 melanoma = test system: SK-MEL-2 melanoma
# MALME-3M melanoma = test system: MALME-3M melanoma
# MDA-MB-231 breast = test system: MDA-MB-231 breast
# KM12 colon = test system: KM12 colon
# U251 CNS = test system: U251 CNS
# TK-10 renal = test system: TK-10 renal
# ACHN renal = test system: ACHN renal
# SK-OV-3 ovarian = test system: SK-OV-3 ovarian
# EKVX NSCLC = test system: EKVX NSCLC
smiles,measurement,setting,value
CC(=O)c1cc2sc3ccccc3c2[nH]1,TGI,HCC-2998 colon,> 100 µM
same,TGI,CAKI-1 renal,> 100 µM
same,TGI,K-562 leukemia,> 100 µM
same,TGI,HCT-15 colon,> 100 µM
same,TGI,A498 renal,> 100 µM
same,TGI,SF-268 CNS,> 100 µM
same,TGI,MOLT-4 leukemia,> 100 µM
same,TGI,MCF7 breast,> 100 µM
same,TGI,MDA-MB-435,> 100 µM
same,TGI,SK-MEL-2 melanoma,> 100 µM
same,TGI,MALME-3M melanoma,> 100 µM
same,TGI,MDA-MB-231 breast,> 100 µM
same,TGI,KM12 colon,> 100 µM
same,TGI,U251 CNS,> 100 µM
same,TGI,TK-10 renal,> 100 µM
same,TGI,ACHN renal,> 100 µM
same,TGI,SK-OV-3 ovarian,> 100 µM
CC1(C)OP(=O)(c2ccccc2)C=C1Br (centres undefined),TGI,HCC-2998 colon,> 100 µM
same,TGI,CAKI-1 renal,> 100 µM
same,TGI,K-562 leukemia,> 100 µM
same,TGI,HCT-15 colon,> 100 µM
same,TGI,A498 renal,> 100 µM
same,TGI,SF-268 CNS,> 100 µM
same,TGI,MDA-MB-435,> 100 µM
same,TGI,SK-MEL-2 melanoma,> 100 µM
same,TGI,MALME-3M melanoma,> 100 µM
same,TGI,EKVX NSCLC,> 100 µM
same,TGI,KM12 colon,> 100 µM
same,TGI,U251 CNS,> 100 µM
same,TGI,TK-10 renal,> 100 µM
same,TGI,ACHN renal,> 100 µM
same,TGI,SK-OV-3 ovarian,> 100 µM
Cn1c(=O)oc2cc(C(=O)CN3CCN(Cc4ccc5c(c4)OCO5)CC3)c(Cl)cc21,TGI,HCC-2998 colon,> 100 µM
same,TGI,CAKI-1 renal,> 100 µM
same,TGI,K-562 leukemia,> 100 µM
same,TGI,HCT-15 colon,> 100 µM
same,TGI,SF-268 CNS,> 100 µM
same,TGI,MOLT-4 leukemia,> 100 µM
same,TGI,MCF7 breast,> 100 µM
same,TGI,SK-MEL-2 melanoma,> 100 µM
same,TGI,MALME-3M melanoma,> 100 µM
same,TGI,MDA-MB-231 breast,> 100 µM
same,TGI,U251 CNS,> 100 µM
same,TGI,ACHN renal,> 100 µM
same,TGI,SK-OV-3 ovarian,> 100 µM
COC(=O)C(=O)C(C(=O)C(=O)Nc1ccccc1C(N)=O)c1nc2ccc([N+](=O)[O-])cc2[nH]c1=O (centres undefined),TGI,HCC-2998 colon,> 100 µM
same,TGI,CAKI-1 renal,> 100 µM
same,TGI,K-562 leukemia,> 100 µM
same,TGI,HCT-15 colon,> 100 µM
same,TGI,A498 renal,> 100 µM
same,TGI,SF-268 CNS,> 100 µM
same,TGI,MOLT-4 leukemia,> 100 µM
same,TGI,SK-MEL-2 melanoma,> 100 µM
same,TGI,MALME-3M melanoma,> 100 µM
same,TGI,EKVX NSCLC,> 100 µM
same,TGI,KM12 colon,> 100 µM
same,TGI,U251 CNS,> 100 µM
same,TGI,TK-10 renal,> 100 µM
same,TGI,ACHN renal,> 100 µM
same,TGI,SK-OV-3 ovarian,> 100 µM
CC1=N/C(=C\c2ccc(N)cc2)C(=O)N1Nc1nnc(NN2C(=O)/C(=C/c3ccc(N)cc3)N=C2C)c2ccccc12,TGI,K-562 leukemia,> 100 µM
same,TGI,HCT-15 colon,> 100 µM
same,TGI,A498 renal,> 100 µM
same,TGI,SF-268 CNS,> 100 µM
same,TGI,MOLT-4 leukemia,> 100 µM
same,TGI,EKVX NSCLC,> 100 µM
same,TGI,KM12 colon,81.5 µM
same,TGI,U251 CNS,> 100 µM
same,TGI,ACHN renal,> 100 µM
CCOC(=O)c1sc2c(c1OC(=O)c1ccc(Cl)cc1Cl)c(=O)n(-c1ccccc1)c(=S)n2-c1ccccc1,TGI,HCC-2998 colon,> 74.6 µM
same,TGI,CAKI-1 renal,> 100 µM
same,TGI,K-562 leukemia,> 100 µM
same,TGI,HCT-15 colon,38.6 µM
same,TGI,A498 renal,46.1 µM
same,TGI,SF-268 CNS,> 100 µM
same,TGI,MOLT-4 leukemia,14.5 µM
same,TGI,MCF7 breast,> 100 µM
same,TGI,MDA-MB-435,> 100 µM
same,TGI,SK-MEL-2 melanoma,18.6 µM
same,TGI,MALME-3M melanoma,66.3 µM
same,TGI,EKVX NSCLC,97.2 µM
same,TGI,MDA-MB-231 breast,> 90.8 µM
same,TGI,KM12 colon,> 42.3 µM
same,TGI,U251 CNS,> 56.1 µM
same,TGI,TK-10 renal,> 100 µM
same,TGI,ACHN renal,> 100 µM
same,TGI,SK-OV-3 ovarian,> 81.2 µM
CC1OC(n2ccc3ccc([N+](=O)[O-])cc32)C(O)C(O)C1O (centres undefined),TGI,CAKI-1 renal,> 100 µM
same,TGI,K-562 leukemia,> 100 µM
same,TGI,HCT-15 colon,> 100 µM
same,TGI,A498 renal,> 100 µM
same,TGI,SF-268 CNS,> 100 µM
same,TGI,MOLT-4 leukemia,> 100 µM
same,TGI,SK-MEL-2 melanoma,> 100 µM
same,TGI,MALME-3M melanoma,> 100 µM
same,TGI,EKVX NSCLC,> 100 µM
same,TGI,KM12 colon,> 100 µM
same,TGI,U251 CNS,> 100 µM
same,TGI,TK-10 renal,> 100 µM
same,TGI,ACHN renal,> 100 µM
same,TGI,SK-OV-3 ovarian,> 100 µM
COc1ccc(NS(=O)(=O)c2ccc3ncn(NS(=O)(=O)c4ccc(I)cc4)c(=O)c3c2)cc1,TGI,HCC-2998 colon,> 100 µM
same,TGI,CAKI-1 renal,> 100 µM
same,TGI,K-562 leukemia,> 100 µM
same,TGI,HCT-15 colon,> 100 µM
same,TGI,A498 renal,> 100 µM
same,TGI,SF-268 CNS,> 100 µM
same,TGI,MOLT-4 leukemia,> 100 µM
same,TGI,MCF7 breast,> 100 µM
same,TGI,MDA-MB-435,> 100 µM
same,TGI,SK-MEL-2 melanoma,> 100 µM
same,TGI,MALME-3M melanoma,> 100 µM
same,TGI,EKVX NSCLC,> 100 µM
same,TGI,MDA-MB-231 breast,> 100 µM
same,TGI,KM12 colon,> 100 µM
same,TGI,U251 CNS,> 100 µM
same,TGI,TK-10 renal,> 100 µM
same,TGI,ACHN renal,> 100 µM
same,TGI,SK-OV-3 ovarian,> 100 µM
